Results reported in patent US20150011751A1, “NOVEL TRIAZINE DERIVATIVE” (CARNA BIOSCIENCES, INC., priority 2012, published 2015).

Target: Dephosphorylated BTK (Homo sapiens, UniProt Q06187)
Assay: Test of activity inhibition against dephosphorylated BTK (mobility shift assay)

Dephosphorylated BTK, sequence (Q06187 whole entry): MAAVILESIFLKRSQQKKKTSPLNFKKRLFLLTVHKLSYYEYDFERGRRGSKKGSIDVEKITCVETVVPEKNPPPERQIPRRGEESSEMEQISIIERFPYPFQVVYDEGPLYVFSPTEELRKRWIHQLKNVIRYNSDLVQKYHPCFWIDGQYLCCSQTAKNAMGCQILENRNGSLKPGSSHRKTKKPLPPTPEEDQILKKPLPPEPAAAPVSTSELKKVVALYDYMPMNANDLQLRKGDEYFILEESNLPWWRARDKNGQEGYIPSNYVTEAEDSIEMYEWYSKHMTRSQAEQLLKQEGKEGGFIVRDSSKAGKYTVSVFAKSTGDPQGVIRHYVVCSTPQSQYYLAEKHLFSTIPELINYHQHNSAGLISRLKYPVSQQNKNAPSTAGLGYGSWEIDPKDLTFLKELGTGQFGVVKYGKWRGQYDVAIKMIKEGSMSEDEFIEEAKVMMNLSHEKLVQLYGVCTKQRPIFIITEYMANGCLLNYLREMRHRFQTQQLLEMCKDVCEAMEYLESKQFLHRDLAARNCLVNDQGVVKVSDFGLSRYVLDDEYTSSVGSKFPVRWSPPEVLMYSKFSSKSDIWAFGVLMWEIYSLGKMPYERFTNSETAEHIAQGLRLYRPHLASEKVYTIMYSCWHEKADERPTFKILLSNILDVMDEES

Row | Compound | IC50 [nM]
1 | Cc1c(NC(=O)c2ccc(C(C)(C)C)cc2)cccc1-c1nc(N)nc(Nc2ccc(N3CCCC(O)C3)cc2)n1 (centres unmarked) [Example 81, N-[3-(4-Amino-6-{[4-(3-hydroxypiperidin-1-yl)phenyl]amino}-1,3,5-triazin-2-yl)-2-meth-ylphenyl]-4-(tert-bu-tyl)benzamide] | 2.2
2 | COCCOc1ccc(Nc2nc(N)nc(-c3cccc(NC(=O)c4cc5c(s4)CCCC5)c3CO)n2)cc1OCCOC [Example 131, N-[3-(4-Amino-6-{[3,4-bis(2-methoxyethoxy)phenyl]amino}-1,3,5-tri-azin-2-yl)-2-(hydroxy-methyl)phenyl]-4,5,6,7-tetrahydrobenzo[b] thiophene-2-carboxamide] | 0.4
3 | CN1CCN(C)C(c2ccc(Nc3nc(N)nc(-c4cccc(N5CCc6cc(C7CC7)cc(F)c6C5=O)c4CO)n3)cc2)C1=O (centres unmarked) [Example 47, 2-[3-(5-Amino-6-{[4-(1,4-dimethyl-3-oxopipera-zin-2-yl)phenyl]ami-no}-1,3,5-triazin-2-yl)-2-(hydroxymethyl)phenyl]-6-cyclopropyl-8-fluoro-3,4-dihydro-isoquinolin-1(2H)-one] | 1.6
4 | Nc1nc(Nc2ccc(N3CCC(O)CC3)cc2)nc(-c2cccc(N3CCc4cc(C5CC5)cc(F)c4C3=O)c2CO)n1 [Example 52, 2-[3-(4-Amino-6-{[4-(4-hydroxypiperidin-1-yl)phenyl]amino}-1,3,5-triazin-2-yl)-2-(hy-droxymethyl)phenyl]-6-cyclopropyl-8-fluoro-3,4-dihydroisoquinolin-1(2H)-one] | 1.6
5 | Nc1nc(Nc2cnn(C3CCOCC3)c2)nc(-c2cccc(N3CCc4cc(C5CC5)cc(F)c4C3=O)c2CO)n1 [Example 218, 2-[3-(4-Amino-6-{[1-(tetra-hydro-2H-pyran-4-yl)-1H-pyrazol-4-yl]amino}-1,3,5-triazin-2-yl)-2-(hydroxymethyl)phenyl]-6-cycloprop-yl-8-fluoro-3,4-dihydro-isoquinolin-1(2H)-one] | 0.2
6 | Cc1c(NC(=O)c2ccc(C(C)(C)C)cc2)cccc1-c1nc(N)nc(Nc2ccc(N3CCCOCC3)cc2)n1 [Example 86, N-[3-(4-{[4-(1,4-Oxaze-pan-4-yl)phenyl]amino}-6-amino-1,3,5-tria-zin-2-yl)-2-methyl-phenyl]-4-(tert-butyl)benzamide] | 4
7 | COCCOc1ccc(Nc2nc(N)nc(-c3cccc(N4CCc5cc(C6CC6)cc(F)c5C4=O)c3CO)n2)cc1OCCOC [Example 48, 2-[3-(4-Amino-6-{[3,4-bis(2-methoxyethoxy)phenyl]amino}-1,3,5-tri-azin-2-yl}-2-(hydroxy-methyl)phenyl]-6-cyclo-propyl-8-fluoro-3,4-dihydroisoquinolin-1(2H)-one] | 3.4
8 | CC(C)(C)c1ccc(C(=O)Nc2cccc(-c3nc(N)nc(Nc4ccc5[nH]ncc5c4)n3)c2CO)cc1 [Example 140, N-(3-{4-[(1H-Indazol-5-yl)amino]-6-amino-1,3,5-triazin-2-yl}-2-(hydroxymethyl)phenyl)-4-(tert-butyl)benzamide] | 1.7
9 | CC(C)(C)c1ccc(C(=O)Nc2cccc(-c3nc(N)nc(Nc4cccc(CO)c4)n3)c2CO)cc1 [Example 122, N-[3-(4-Amino-6-{[3-(hy-droxymethyl)phenyl]amino}-1,3,5-triazin-2-yl)-2-(hydroxymethyl)phenyl]-4-(tert-butyl)benzamide] | 0.8
10 | CC(C)(C)c1ccc(C(=O)Nc2cccc(-c3nc(N)nc(Nc4ccc(Cn5ccccc5=O)cc4)n3)c2CO)cc1 [Example 173, N-{3-[4-Amino-6-({4-[(2-oxopyridin-1(2H)-yl)methyl]phenyl}amino)-1,3,5-triazin-2-yl]-2-(hydroxymethyl)phe-nyl}-4-(tert-butyl) benzamide] | 0.6
11 | Nc1nc(Nc2ccc(CN3CCOCC3)cc2)nc(-c2cccc(NC(=O)c3cc4c(s3)CCCC4)c2CO)n1 [Example 132, N-[3-(4-Amino-6-{[4-(mor-pholinomethyl)phe-nyl]amino}-1,3,5-triazin-2-yl)-2-(hydroxymeth-yl)phenyl]-4,5,6,7-tetrahydrobenzo[b]thio-phene-2-carboxamide] | 0.5
12 | Nc1nc(Nc2cnn(C3CC3)c2)nc(-c2cccc(N3CCc4cc(C5CC5)cc(F)c4C3=O)c2CO)n1 [Example 238, 2-(3-{4-Amino-6-[(1-cyclo-propyl-1H-pyrazol-4-yl)amino]-1,3,5-tri-azin-2-yl}-2-(hydroxy-methyl)phenyl)-6-cyclo-propyl-8-fluoro-3,4-dihydroisoquinolin-1 (2H)-one] | 0.9
13 | COCCOc1ccc(Nc2nc(N)nc(-c3cccc(NC(=O)c4ccc(C(C)(C)C)cc4)c3CO)n2)cc1 [Example 74, N-[3-(4-Amino-6-{[4-(2-methoxyethoxy)phenyl]amino}-1,3,5-triazin-2-yl)-2-(hydroxymeth-yl)phenyl]-4-(tert-butyl) benzamide] | 0.7
14 | CC(C)(C)c1ccc(C(=O)Nc2cccc(-c3nc(N)nc(Nc4ccc(OCCN5CCOCC5)cc4)n3)c2CO)cc1 [Example 78, N-[3-(4-Amino-6-{[4-(2-morpholinoethoxy)phe-nyl]amino}-1,3,5-tri-azin-2-yl)-2-(hydroxy-methyl)phenyl]-4-(tert-butyl)benzamide] | 1.2
15 | Nc1nc(Nc2ccc(Cn3ccnc3)cc2)nc(-c2cccc(NC(=O)c3cc4c(s3)CCCC4)c2CO)n1 [Example 133, N-{3-[4-({4-[(1H-Imida-zol-1-yl)methyl]phe-nyl}amino)-6-amino-1,3,5-triazin-2-yl]-2-(hy-droxymethyl)phenyl}-4,5,6,7-tetrahydroben-zo[b]thiophene-2-carboxamide] | 0.4
16 | CC(C)(C)c1ccc(C(=O)Nc2cccc(-c3nc(N)nc(Nc4cn[nH]c4)n3)c2CO)cc1 [Example 165, N-(3-{4-[(1H-Pyrazol-4-yl)amino]-6-amino-1,3,5-triazin-2-yl}-2-(hydroxymethyl)phenyl)-4-(tert-butyl)benzamide] | 0.7
17 | CC1(c2ccc(C(=O)Nc3cccc(-c4nc(N)nc(Nc5ccc(N6CCOCC6)cc5)n4)c3CO)cc2)CC1 [Example 192, N-(3-{4-Amino-6-[(4-morph-olinophenyl)amino]-1,3,5-triazin-2-yl}-2-(hydroxymethyl)phe-nyl)-4-(1-methylcyclo-propyl)benzamide] | 0.7
18 | Cc1c(NC(=O)c2ccc(C(C)(C)C)cc2)cccc1-c1nc(N)nc(Nc2ccc(N3CCC(O)CC3)cc2)n1 [Example 87, N-[3-(4-Amino-6-{[4-(4-hydroxypiperidin-1-yl)phenyl]amino}-1,3,5-triazin-2-yl)-2-meth-ylphenyl]-4-(tert-butyl)benzamide] | 1.4
19 | Nc1nc(Nc2ccn(CCO)c2)nc(-c2cccc(N3CCc4cc(C5CC5)cc(F)c4C3=O)c2CO)n1 [Example 234, 2-[3-(4-Amino-6-{[1-(2-hydroxyethyl)-1H-pyrrol-3-yl]amino}-1,3,5-triazin-2-yl)-2-(hy-droxymethyl)phenyl]-6-cyclopropyl-8-fluoro-3,4-dihydroisoquinolin-1(2H)-one] | 2.7
20 | Nc1nc(Nc2cnn(CCN3CCOCC3)c2)nc(-c2cccc(N3CCc4cc(C5CC5)cc(F)c4C3=O)c2CO)n1 [Example 237, 2-[3-(4-Amino-6-{[1-(2-morpholinoethyl)-1H-pyrazol-4-yl]amino}-1,3,5-triazin-2-yl)-2-(hydroxymethyl)phenyl]-6-cyclopropyl-8-fluoro-3,4-dihydro-isoquinolin-1(2H)-one] | 0.8
